According to patent publication US20100063007A1, “PESTICIDE C[…]-[…] AND AN I[…] SUBSTANCE” (BAYER CROPSCIENCE AG, priority 2006, published 2010):

Assays:
Plutella xylostella = assay: Efficacy Example A: Plutella xylostella test (cabbage leaf dip, larval mortality); type: in vivo; settings: mortality of larvae after 6 days
Procedure: Efficacy Example A: Plutella xylostella Test
(§1) After a period of time of 6 days, the mortality is determined. 100% means that all the caterpillars have been killed; 0% means that none of the caterpillars have been killed.

Spodoptera frugiperda = assay: Efficacy Example B: Spodoptera frugiperda test (cabbage leaf dip, larval mortality); type: in vivo; settings: mortality of larvae after 6 days
Procedure: Efficacy Example B: Spodoptera frugiperda Test
as §1

Compound: CN/C(=N\[N+](=O)[O-])NCc1cnc(Cl)s1 [clothianidin]
- Efficacy (%) (Plutella xylostella; rate of application 100 ppm): 80%

Compound: O=[N+]([O-])NC1=NCCN1Cc1ccc(Cl)nc1 [imidacloprid]
- Efficacy (%) (Spodoptera frugiperda; rate of application 4 ppm): 30%

Compound: N#C/N=C1\SCCN1Cc1ccc(Cl)nc1 [thiacloprid]
- Efficacy (%) (Plutella xylostella; rate of application 20 ppm): 5%

Compound: CN1COCN(Cc2cnc(Cl)s2)/C1=N\[N+](=O)[O-] [thiamethoxam]
- Efficacy (%) (Spodoptera frugiperda; rate of application 20 ppm): 0%
